The text below walks through data of patent US5378475A, “Sustained release drug delivery devices” (priority 1991, dated 1995).

Data set [1] concerns CMV retinitis. As to conditions: intravitreal injections of 200 to 400 μg once or twice weekly; cited from earlier work.
The test system of the next data set is rabbit retina. Put plainly: 6 mg bolus dose of intravitreal GCV: retinal toxicity in rabbit (Example 3). Type of data set: in vivo, New Zealand albino rabbits. Conditions: 6 mg bolus dose intravitreal, two eyes.
For a further data set, the system named is rabbit eye. Details: species or system New Zealand albino rabbits. As to conditions: in vivo. How it is done: New Zealand albino rabbits weighing 1.5 to 2 kg were used in this study. Anesthesia was provided with intramuscular ketamine HCl (40 mg/kg), attopine sulfate (0.1 mg/kg), xylazine HCl (10 mg/kg) and topical proparacaine (0.5%).
A baseline photopic electroretinogram (ERG) was recorded preoperatively in each rabbit using a corneal contact lens. A Gansfeld stimulus was used to improve standardization of results. After sedation, the rabbits were placed inside a Gansfeld stimulator 20 cm away from the flash unit. Flash (cone and rod response) and flicker (cone response) ERGs were done under light adapted conditions. Graphic measurements were recorded, and the waveform amplitudes and implicit times were calculated.
This was done because the pars plana of the New Zealand albino rabbit is poorly developed and it was therefore necessary to implant the devices and take vitreous samples through retina. The ERG was repeated four weeks later immediately prior to insertion of the device. […]
Vitreous samples were periodically removed using a 20 gauge needle on a tuberculin syringe. […] After removal, vitreous samples were stored at -60° C until analyzed by HPLC. […]
Vitreous samples were not collected from the treated eyes. […] In this group, devices were removed from the eyes and the amount of GCV still present determined by HPLC. […]

In data set [2] the test system is CMV retinitis. As to conditions: intravenous; cited from earlier work.
Data set [3] in a line: Device/drug stability after heat treatment (Example 2). It is filed as physicochemical.
Data set [4] can be described thus: Diffusion/release of 5-FU through PVA membranes. Conditions: heat treated PVA membrane. Type of data set: in vitro ADME. The source says: Subconjunctival administration of 5-FU as an adjunct to filtration surgery in high risk glaucoma patients is attended by the necessity of multiple subconjunctival injections and the potentially serious complications due to delayed wound healing. Alternative delivery systems have been proposed including liposomes, topical administration, and sustained release polymers. […] Therefore, the rate of release was further decreased by layering EVA within the PVA to create a membrane system that was 6×8 mm in size.

The conditions of data set [5]: J. Ocular Pharmacol. 1988;1062:231; cited from earlier work.
For data set [6] the following is noted: J. Ocular Pharmacol. 1988;1062:231; cited from earlier work. This is another data set of the same source.
The test system of a further data set is AIDS patients. As to conditions: human, in vivo; cited from earlier work.

As for `Nc1nc(O)c2ncn(COC(CO)CO)c2n1` [GCV, ganciclovir], the “effect on CMV retinitis” value in the data set on CMV retinitis [1] was “temporary remission of CMV retinitis in AIDS patients”. The “toxicity by indirect ophthalmoscopy” value in the data set on rabbit retina is listed as “no evidence of toxicity”. In addition, in the data set with rabbit eye, the observable retinal toxicity result is “No observable retinal toxicity”. In the data set with CMV retinitis [2], the bone marrow toxicity result is “bone marrow toxicity limits its usefulness” and the “effect on CMV retinitis in AIDS patients” value is on record as “effective in the treatment of CMV retinitis in AIDS patients”. The “drug loss or decomposition after heat treatment of ganciclovir pellet” value in [3] (HPLC analysis) is “no apparent drug loss or decomposition”. Besides, the “near IR after heat treatment” value in data set [3] (individual component) is on record as “no change after heat treatment”.

Consider `O=c1[nH]cc(F)c(=O)[nH]1` [5-FU, 5-fluorouracil], for which the “effect of heat treating the PVA membrane on 5-FU release rates” value in data set [4] was “release rates could be markedly decreased”. Also, in data set [5], the “permeability of EVA to 5-FU” value is listed as “EVA was impermeable to 5-FU”. The “release of 5-FU through PVA” value in [6] is “PVA provided a linear release”.

Take `Cc1cn([C@H]2C[C@H](N=[N+]=[N-])[C@@H](CO)O2)c(=O)[nH]c1=O` [zidovudine]: the “effect in AIDS patients” value in the data set on AIDS patients was “prolong life and improve the immune function in AIDS patients”.
